US12172999B2, “Polymorphs” (SYNGENTA PARTICIPATIONS AG, priority 2016, dated 2024)

Assay: Stability of polymorphs: competitive slurry of both forms, polymorphic form determined by high throughput pXRD
Type: physicochemical
Description: Equal amounts of the polymorph of the invention and the Reference Form A polymorph were stirred in 33% methylcyclohexane/xylene for 4 days at a range of temperatures: 6° C., 35° C., 40° C. and 52° C. After the 4 days, the crystals were isolated and dried and their polymorphic form determined by high throughput pXRD. […] As such, formulations of the polymorph of the invention made and stored at up to 52° C. will be unlikely to show unwanted crystal growth.

Row | SMILES | characteristic pXRD reflections in the isolated crystals (equal amounts of both polymorphs stirred in 33% methylcyclohexane/xylene for 4 days, all temperatures (6° C., 35° C., 40° C., 52° C.)) | stable polymorphic form (equal amounts of both polymorphs stirred in 33% methylcyclohexane/xylene for 4 days at 6° C., 35° C., 40° C. and 52° C., crystals isolated, dried, pXRD)
1 | CCOC(=O)OC1=C(c2c(C)cc(Cl)cc2C)C(=O)N(C)C12CCN(OC)CC2 [Reference Form A] | absent | 
2 | CCOC(=O)OC1=C(c2c(C)cc(Cl)cc2C)C(=O)N(C)C12CCN(OC)CC2 [polymorph of the invention] |  | the stable form over the temperature range studied
